Source: ChEMBL document CHEMBL1201862, “PubChem BioAssay data set” (2004)
The source made the active and inactive calls.

Tests used:
[1] = target: Cytochrome P450 3A4 (Homo sapiens, UniProt P08684); details: Potency;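 also: confirmatory qHTS run detecting inhibitors and substrates of CYP3A4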
[2] = target: T1, Polyadenylate-binding protein 1 (Homo sapiens, UniProt P11940); test: PABP1 MLLE–PAM2 interaction inhibitors, dose response, miRNA deadenylation inhibitor project, biochemical, fluorescence polarization, Cy5-PAM2 peptide, secondary (AID 602260); format: functional; details: read-out: IC50_Mean
T1 sequence (P11940 whole entry): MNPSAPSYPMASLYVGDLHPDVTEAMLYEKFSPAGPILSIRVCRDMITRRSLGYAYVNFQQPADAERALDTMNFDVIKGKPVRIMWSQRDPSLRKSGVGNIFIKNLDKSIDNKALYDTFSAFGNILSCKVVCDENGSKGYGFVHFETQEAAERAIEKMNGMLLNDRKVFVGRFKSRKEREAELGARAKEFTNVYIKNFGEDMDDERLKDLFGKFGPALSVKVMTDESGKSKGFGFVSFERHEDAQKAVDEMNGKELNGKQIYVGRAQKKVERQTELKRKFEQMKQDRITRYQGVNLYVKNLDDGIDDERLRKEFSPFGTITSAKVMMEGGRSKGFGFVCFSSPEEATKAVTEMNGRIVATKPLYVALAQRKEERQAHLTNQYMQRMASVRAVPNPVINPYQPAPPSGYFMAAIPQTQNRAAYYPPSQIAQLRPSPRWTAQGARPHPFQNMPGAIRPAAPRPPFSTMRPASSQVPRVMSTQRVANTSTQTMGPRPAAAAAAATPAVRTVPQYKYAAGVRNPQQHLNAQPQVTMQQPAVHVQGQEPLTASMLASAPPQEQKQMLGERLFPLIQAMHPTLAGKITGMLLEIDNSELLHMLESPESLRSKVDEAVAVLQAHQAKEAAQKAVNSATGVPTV

[3] = target: Genome polyprotein (dengue virus type 2, UniProt P29990); test: Dengue-2 NS5 methyltransferase inhibitors, primary screen, biochemical, confirmation dose response (AID 588689); format: functional
Chain of Genome polyprotein (P29990 2492-3391 limits assumed): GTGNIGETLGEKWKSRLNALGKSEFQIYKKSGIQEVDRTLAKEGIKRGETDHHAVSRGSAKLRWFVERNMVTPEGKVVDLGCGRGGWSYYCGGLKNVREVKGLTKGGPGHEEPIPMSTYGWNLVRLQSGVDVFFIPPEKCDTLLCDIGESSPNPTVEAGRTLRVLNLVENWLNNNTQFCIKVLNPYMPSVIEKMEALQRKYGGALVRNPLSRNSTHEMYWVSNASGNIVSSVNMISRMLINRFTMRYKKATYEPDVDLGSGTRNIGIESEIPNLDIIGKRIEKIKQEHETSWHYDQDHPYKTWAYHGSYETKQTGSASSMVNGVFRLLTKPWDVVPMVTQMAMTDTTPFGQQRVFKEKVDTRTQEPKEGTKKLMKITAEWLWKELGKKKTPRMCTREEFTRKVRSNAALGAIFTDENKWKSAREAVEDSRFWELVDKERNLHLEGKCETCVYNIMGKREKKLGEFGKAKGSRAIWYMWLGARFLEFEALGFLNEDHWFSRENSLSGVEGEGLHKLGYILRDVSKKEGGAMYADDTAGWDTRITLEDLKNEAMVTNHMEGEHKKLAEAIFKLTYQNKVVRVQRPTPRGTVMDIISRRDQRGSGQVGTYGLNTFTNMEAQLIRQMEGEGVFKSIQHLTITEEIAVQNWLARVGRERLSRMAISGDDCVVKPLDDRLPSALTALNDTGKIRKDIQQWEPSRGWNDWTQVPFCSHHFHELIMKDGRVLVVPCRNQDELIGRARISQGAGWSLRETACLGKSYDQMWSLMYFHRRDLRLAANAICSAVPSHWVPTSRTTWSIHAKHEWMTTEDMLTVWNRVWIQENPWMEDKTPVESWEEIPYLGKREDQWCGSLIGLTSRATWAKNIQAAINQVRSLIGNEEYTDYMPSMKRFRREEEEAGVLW

[4] = target: T1, Polyadenylate-binding protein 1; test: PABP1 MLLE–PAM2 binding inhibitor potency, dose response, biochemical, fluorescence polarization, FITC-PAM2 peptide (AID 602259); format: functional; details: read-out: IC50_Mean
[5] = HEp-2 cell cytotoxicity, dose response, cytotoxicity control for RSV inhibitor project, HTS (AID 2410); format: functional; details: human respiratory syncytial virus
[6] = microbe, parasite or virus in culture; format: functional; details: Mycobacterium tuberculosis
[7] = cells
[8] = inhibitors of intracellular T. cruzi replication, confirmation, NIH3T3 host cells, beta-gal luminescence (AID 2044); format: functional, cell-based;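 also: intracellular parasites grown in NIH/3T3 mouse fibroblasts as host cells; luminescent beta-galactosidase reporter signal from transgenic T. cruzi replicating inside host cells; inhibitors lower the luminescence signal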
[9] = cytotoxicity toward NIH3T3 fibroblasts, dose response, counter-screen, cell-based, ATP luminescence, mouse fibroblasts (AID 2010); format: functional;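 also: cells exposed to compound for about 90 hours before reading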
[10] = target: T2, Short transient receptor potential channel 4 (Mus musculus, UniProt Q9QUQ5); test: mouse TRPC4 channel activators, dose response, cell-based, HEK293 TRPC4/mu-opioid, Fluo-4 calcium (AID 434937); format: functional
T2 sequence (Q9QUQ5 whole entry): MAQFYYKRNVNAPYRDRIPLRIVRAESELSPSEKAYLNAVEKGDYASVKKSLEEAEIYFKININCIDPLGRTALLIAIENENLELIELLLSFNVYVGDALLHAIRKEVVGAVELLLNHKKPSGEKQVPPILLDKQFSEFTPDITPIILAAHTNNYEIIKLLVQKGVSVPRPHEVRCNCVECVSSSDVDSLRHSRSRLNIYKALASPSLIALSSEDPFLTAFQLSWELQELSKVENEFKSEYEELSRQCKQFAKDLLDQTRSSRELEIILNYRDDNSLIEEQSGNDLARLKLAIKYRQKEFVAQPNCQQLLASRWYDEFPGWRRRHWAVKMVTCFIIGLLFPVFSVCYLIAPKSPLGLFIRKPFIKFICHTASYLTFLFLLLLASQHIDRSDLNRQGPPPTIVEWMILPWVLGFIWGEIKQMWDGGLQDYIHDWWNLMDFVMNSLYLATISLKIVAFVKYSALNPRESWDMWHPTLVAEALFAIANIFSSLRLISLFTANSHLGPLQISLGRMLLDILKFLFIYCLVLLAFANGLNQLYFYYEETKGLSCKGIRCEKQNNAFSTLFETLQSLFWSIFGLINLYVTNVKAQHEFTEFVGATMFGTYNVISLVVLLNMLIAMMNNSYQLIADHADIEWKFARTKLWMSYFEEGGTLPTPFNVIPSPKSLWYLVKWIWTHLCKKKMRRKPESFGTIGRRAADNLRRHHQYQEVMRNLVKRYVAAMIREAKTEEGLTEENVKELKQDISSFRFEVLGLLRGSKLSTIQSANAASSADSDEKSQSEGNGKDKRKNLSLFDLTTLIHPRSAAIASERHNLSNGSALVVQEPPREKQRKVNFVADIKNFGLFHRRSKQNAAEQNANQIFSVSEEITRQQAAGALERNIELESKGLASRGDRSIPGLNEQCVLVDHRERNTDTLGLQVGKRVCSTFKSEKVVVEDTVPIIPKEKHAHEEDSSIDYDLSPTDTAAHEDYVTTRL

[11] = THP-1 cell cytotoxicity, dose response, cytotoxicity control for non-replicating M. tuberculosis project (AID 489025); format: functional
[12] = cells; format: functional
[13] = NIH-3T3 fibroblast cytotoxicity, dose response, cytotoxicity control, cell-based, fluorescence, Alamar Blue, secondary assay (AID 2327); format: functional;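 also: NIH-3T3 mouse fibroblasts cultured with fluconazole at 8 µg/mL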
[14] = target: T3, High affinity choline transporter 1 (Homo sapiens, UniProt Q9GZV3); test: CHT inhibitors, dose response, cell-based, 5-point CRC, membrane potential dye (AID 504840); format: functional
T3 sequence (Q9GZV3 whole entry): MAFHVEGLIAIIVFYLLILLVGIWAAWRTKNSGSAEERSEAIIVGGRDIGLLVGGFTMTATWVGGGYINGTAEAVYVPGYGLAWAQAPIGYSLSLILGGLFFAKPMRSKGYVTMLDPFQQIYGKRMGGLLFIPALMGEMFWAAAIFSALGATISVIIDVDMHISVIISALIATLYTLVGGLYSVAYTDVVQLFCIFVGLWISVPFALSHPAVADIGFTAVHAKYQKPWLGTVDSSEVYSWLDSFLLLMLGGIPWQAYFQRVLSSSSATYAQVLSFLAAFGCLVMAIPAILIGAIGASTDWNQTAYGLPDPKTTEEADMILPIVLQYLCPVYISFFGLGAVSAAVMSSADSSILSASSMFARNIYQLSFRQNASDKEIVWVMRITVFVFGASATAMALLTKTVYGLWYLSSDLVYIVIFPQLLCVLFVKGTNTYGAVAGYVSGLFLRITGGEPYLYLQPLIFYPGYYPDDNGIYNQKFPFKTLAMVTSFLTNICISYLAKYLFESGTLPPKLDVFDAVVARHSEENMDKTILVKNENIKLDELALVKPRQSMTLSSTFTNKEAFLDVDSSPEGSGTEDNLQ

[15] = C. albicans growth with fluconazole, confirmation, fluorescence, retest (AID 2467); format: functional, cell-based

Chain of Cytochrome P450 3A4 (P08684 whole entry): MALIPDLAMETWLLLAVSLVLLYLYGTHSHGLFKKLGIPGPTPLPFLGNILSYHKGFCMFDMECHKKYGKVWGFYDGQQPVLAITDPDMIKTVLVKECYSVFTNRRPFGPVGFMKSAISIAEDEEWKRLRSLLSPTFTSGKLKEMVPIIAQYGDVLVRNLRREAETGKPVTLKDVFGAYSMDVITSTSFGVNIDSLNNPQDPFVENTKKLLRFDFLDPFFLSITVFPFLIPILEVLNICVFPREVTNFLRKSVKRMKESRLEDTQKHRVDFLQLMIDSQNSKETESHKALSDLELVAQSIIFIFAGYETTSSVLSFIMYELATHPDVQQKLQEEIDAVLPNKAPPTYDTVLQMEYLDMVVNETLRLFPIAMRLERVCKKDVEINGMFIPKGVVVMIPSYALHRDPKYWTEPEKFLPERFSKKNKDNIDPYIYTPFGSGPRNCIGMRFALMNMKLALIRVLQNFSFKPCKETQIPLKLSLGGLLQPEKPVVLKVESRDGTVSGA

COc1cc2c(Cc3c4c5c(cc(OC)c(OC)c5c5c(OC)c(OC)ccc35)CCN4C)c3c4c(cc(OC)c(OC)c4c2cc1OC)CCN3C
AC50 [1]: 3.16 µM (inconclusive)

Cc1cc[n+](-c2[n-]c(=O)sc2C=NNC(=O)c2ccncc2)cc1
IC50 [2]: > 66 µM (inactive)
IC50 [3]: 83.8 µM (active)
IC50 [4]: 36 µM (inactive)

Nc1ccc(-c2nc3cc(-c4nc5ccccc5o4)ccc3[nH]2)cc1
CC50 [5]: 48.2 µM (active)
CC50 [6]: > 40 µM (active)
IC50 [7]: 33.4 µM (active)

Cc1nc(NC2CCCCC2)c2nc(-c3ccccc3)n(CCCN(C)C)c2n1
AC50 [1]: 20 µM (inconclusive)

COC(=O)CNC(=O)[C@@]1(C)C=C[C@@H](Cc2ccccc2)N1C(C)=O
AC50 [1]: 20 µM (inconclusive)

O=Nc1ccc(Nc2ccccc2)cc1
AC50 [1]: 20 µM (inconclusive)

Cn1c2ccccc2c(=O)c2c(=O)n(Cc3ccco3)c(-c3ccc(Cl)cc3Cl)nc21
EC50 [8]: 0.978 µM (active)
CC50 [5]: 15.5 µM (active)
IC50 [7]: 10.2 µM (active)
EC50 [9]: > 30 µM (not active)

CCOC(=O)CN1C(=O)N[C@@H](c2cccc(F)c2)C(C(C)=O)=C1C
CC50 [5]: 44.1 µM (active)
IC50 [7]: 12.8 µM (active)

CCCCN(CC)CCCNC(=O)c1csc2c1CCCCC2
EC50 [10]: 1.19 µM (active)

CSc1nc(O)c(C(c2ccc(OC(C)C)cc2)c2c(O)nc(SC)nc2O)c(O)n1
IC50 [3]: 32.9 µM (active)

CN(C)C(CNC(=O)/C=C/c1cccc(Cl)c1)c1ccccc1 (stereo unspecified)
EC50 [10]: 0.133 µM (active)

COC(=O)CC1[C@@]2(C)C[C@]34OC5(C)OC6(C7CC(=O)OC(c8ccoc8)[C@]7(C)CCC6(O5)[C@]13C)C(OC(C)=O)[C@]4(OC(C)=O)C2OC(C)=O (stereo partly specified)
AC50 [1]: 20 µM (inconclusive)

O=C1CCC/C(=N/Nc2ccc(Cl)cc2)C1
CC50 [11]: > 40 µM (active)
IC50 [3]: 93.3 µM (active)
IC50 [12]: 16.9 µM (active)
EC50 [13]: > 150 µM (inactive)

Cc1ccc(C(=O)/C=C/C(=O)O)cc1
IC50 [2]: > 66 µM (inactive)
IC50 [3]: > 100 µM (active)
IC50 [4]: > 66 µM (inactive)
IC50 [14]: 10.5 µM (active)

NC(=O)COc1ccc2c3c(c(=O)oc2c1)CCCCC3
EC50 [15]: > 38 µM (not active)
IC50 [7]: 42.2 µM (active)
EC50 [13]: > 160 µM (inconclusive)
